In patent publication US20060104903A1, “Model for evaluating the efficacy of locally applied antiproliferatives or other agents on neointimal hyperplasia, immunohistochemical and vascular cell cycle changes in balloon-injured rat carotid arteries” (priority 2004, published 2006):

How the values were obtained:
Format in all cases: in vivo
[1] = tested on: balloon-injured rat carotid artery; assay: Cell proliferation in injured rat carotid artery, PCNA immunohistochemistry; details: 200 μg in pluronic gel suspension, perivascular, seven days post injury
Description: (§1) The delivery vehicle may comprise any suitable device. In the exemplary embodiment, the delivery vehicle comprises silastic tubing as illustrated in FIG. 1. The silastic tubing 300 is about 10 mm long with an outside diameter of about 1.5 mm. The total luminal volume, based upon emperical measurement, is about 20 μL. It is important to note that the silastic tubing 300 may comprise any suitable length. The length of the tubing is determined by the amount of artery resected. The silastic tubing may comprise a notch 302 on one end to facilitate placement thereof over the carotid artery. The silastic tubing is then autoclaved prior to surgery. The silastic tubing is filled with about 20 μL of the pluronic gel comprising a suspension, solution or combination suspension and solution of test agent. The pluronic gel formulation to be encased within the silastic tubing is dispersed into the silastic tubing utilizing a 20 μL adjustable pipette with a sterile tip. The pluronic vehicle or pluronic drug solution remains on ice until immediately before pipetting and dispensing into the silastic tubing.
(§2) The next step in the process comprises the surgical procedure. The rat is anesthetized prior to surgical intervention. The rat may be anesthetized utilizing any number of anesthetizing agents, both inhalational and/or injectable. […]

[2] = tested on: balloon-injured rat carotid artery; assay: Neointimal hyperplasia in balloon-injured rat carotid artery, histomorphometric analysis after perivascular delivery
Description: as §1, §2

[3] = tested on: balloon-injured rat carotid artery; assay: Vascular wall cell cycle and apoptotic nuclei in injured rat carotid artery, flow cytometry (propidium iodide); details: 200 μg in pluronic gel suspension, perivascular, seven days post injury
Description: as §1, §2

| Structure (SMILES) | neointimal proliferation (PCNA labeling) [1] | neointima formation (FIG. 3 slides) ([2]; 200 μg in pluronic gel, perivascular administration) | neointimal formation (FIG. 2) ([2]; perivascular application) | percentage nuclei in the G0/G1 phases [3] | total percentage of apoptotic cells in the injured vessel wall [3] |
| --- | --- | --- | --- | --- | --- |
| CC[C@@]1(O)C(=O)OCc2c1cc1n(c2=O)Cc2cc3c(CN(C)C)c(O)ccc3nc2-1 [Topotecan] | substantially no effect |  |  |  |  |
| CC(=O)O[C@H]1C(=O)[C@@]2(C)[C@H]([C@H](OC(=O)c3ccccc3)[C@]3(O)C[C@H](OC(=O)[C@H](O)[C@@H](NC(=O)c4ccccc4)c4ccccc4)C(C)=C1C3(C)C)[C@]1(OC(C)=O)CO[C@@H]1C[C@@H]2O [paclitaxel] | significantly reduce | substantial-reduction | significantly reduced | increases | increase |
